By Ki is commonly meant a measure of affinity in units of concentration, obtained from inhibition or displacement. Low readings indicate a stronger hold on the target, high ones a looser hold on the target.

A short description of this assay: Inhibition of Clostridium perfringens carbonic anhydrase preincubated for 15 mins by stopped flow CO2 hydration assay.
With `CC(=O)Nc1nnc(S(N)(=O)=O)s1` [ACETAZOLAMIDE], the inhibitory constant (Ki) was determined as 4.9e-05 mM.

Take `CCN(CC)C(=S)S` [DITIOCARB SODIUM]: affinity was put at a Ki of 0.36 mM. The compound `O=[As](O)(O)c1ccccc1` [PHENYLARSONIC ACID] came in with a Ki of 0.007 mM. In turn, `OB(O)c1ccccc1` [PHENYLBORONIC ACID] returned a Ki of 0.075 mM.

Take `[N-]=[N+]=[N-]` [SODIUM AZIDE]: affinity was put at a Ki of 4.2 mM. This Ki lies about 56-fold higher than the previous one. In the case of `O=C([O-])O.[Na+]` [SODIUM BICARBONATE], affinity was put at a Ki of 2.1 mM. Compared with the last compound, the Ki is about 2-fold lower. `O=S([O-])O.[Na+]` [SODIUM BISULFITE] yielded a Ki of 4.9 mM. In the case of `[Br-].[Na+]` [SODIUM BROMIDE], the Ki worked out at 21.5 mM. `O=C([O-])[O-].[Na+].[Na+]` [SODIUM CARBONATE] gave an inhibition constant Ki of 0.65 mM. For `S=C(S)S` [SODIUM CARBONOTRITHIOATE], the affinity, expressed as Ki, was 1 mM. Compared with the last compound, the Ki is about 1.5-fold higher. In turn, `[Cl-].[Na+]` [SODIUM CHLORIDE] showed a Ki of 4.3 mM. As for `[F-].[Na+]` [SODIUM FLUORIDE], the figure is 4.8 mM; as for `S` [SODIUM HYDROSULFIDE], 4 mM. `O=S(=O)(O)ONOS(=O)(=O)O` [SODIUM IMINODISULFATE] showed an inhibitory constant (Ki) of 4.9 mM. The Ki values of the last two compounds are within 1.5-fold of each other. `[I-].[Na+]` [SODIUM IODIDE] yielded an inhibition constant Ki of 63.4 mM. In turn, `N=C=S` [SODIUM ISOTHIOCYANATE] returned a Ki of 0.83 mM. As for `O=[N+]([O-])[O-].[Na+]` [SODIUM NITRATE], the Ki is 4.6 mM. This Ki is about 5.5-fold higher than that of the compound before. Compound `O=NO` [SODIUM NITRITE] gave an inhibition constant Ki of 4.1 mM. The Ki values of the last two compounds are within 1.5-fold of each other.

In the case of `[O-][Cl+3]([O-])([O-])O` [SODIUM PERCHLORATE], the Ki is over 200 mM. Turning to `O=S(=O)(O)OOS(=O)(=O)O` [SODIUM PERSULFATE], the Ki came to 9.2 mM. This counts as millimolar.

In turn, `O=P(O)(O)OP(=O)(O)O` [SODIUM PYROPHOSPHATE] gave a Ki of 2.7 mM. Against the preceding compound, the Ki is about 3.4-fold lower. Consider `O=[Se](=O)(O)O` [SODIUM SELENATE], for which the inhibitory constant (Ki) was determined as 0.47 mM. Take `O=S(=O)([O-])[O-].[Na+].[Na+]` [SODIUM SULFATE ANHYDROUS]: the inhibition constant (Ki) turned out to be 7.9 mM. In turn, `O=[Te](=O)(O)O` [SODIUM TELLURATE] returned a Ki of 3.3 mM.

`O=BOB(O)OB(O)OB=O` [SODIUM TETRABORATE] gave an inhibitory constant (Ki) of 2.5 mM. Compound `F[B-](F)(F)F.[Na+]` [SODIUM TETRAFLUOROBORATE] displayed a Ki of over 200 mM. For `NS(=O)(=O)O` [SULFAMATE], the Ki worked out at 0.009 mM.

The values above are taken from ChEMBL document CHEMBL3091278 (Bioorg Med Chem Lett, 2013).
